Legend:
[1] = system: female Fisher 344 rats bearing rat mammary adenocarcinoma 13762; assay: Effect of creatine compounds on glucose levels in rats bearing tumors (i.v., days 4-8 and 14-18); assay type: in vivo; details: for Glucose Levels: i.v. days 4-8 and 14-18
Procedure: Two creatine compounds, creatine phosphate and cyclocreatine, were injected intravenously into tumor bearing rats, and the level of glucose in the rats was monitored. Beta guanidino propionic acid, also was administered. […] There was no specific reason for using tumor bearing rats, except convenience because the antitumor activity of these compounds also was being studied. The presence of the tumors should not have any effect on the ability of these compounds to regulate glucose levels. The rats carrying the tumors were described by us previously (see, […] et al., Cancer Chemother. Pharmacol, 35: 411-416, 1995). The schedule and dose selected in these experiments was based on prior experience working with this class of compounds as anticancer or antiviral chemotherapeutic agents. The rat mammary adenocarcinoma 13762 was implanted in the female Fisher 344 rats on day zero. The creatine compounds were administered intravenously on days 4-8 and days 14-18. The amounts used were 1 gm/kg of cyclocreatine, 0.93 gm/kg for beta guanidino propionic acid, and 2.32 gm/kg for creatine phosphate. […] Plasma glucose levels were measured at around 11 a.m., by taking a drop of blood from the animals and testing glucose levels using a commercial kit ([…] bG, Boehringer Mannheim). For animals that were treated with drugs, the treatment was around 9 a.m., and bleeding was also at around 11 a.m. To examine more closely what occurred in the above two experiments, the average readings of glucose levels from experiments one and two were taken in the following time intervals post drug treatment: Days 2-3, Days 4-8, Days 8-12, Days 14-18, Day 15 and Days 19-22.

[2] = system: NZW rabbits, normal or infected with HCMV in their eyes; assay: Effect of cyclocreatine continuous intravenous infusion on glucose levels in rabbits; assay type: in vivo, rabbit; details: for average glucose levels: 10 and 5 mg/ml
Procedure: The creatine compound cyclocreatine, was given as a continuous intravenous infusion (IV) to normal rabbits or rabbits infected with the human cytomegalovirus (HCMV) in their eyes (Rabbit Chorioretinal model). Glucose levels were recorded over a period of seven days. This compound was tested in infected as well as in normal animals due to the fact that these compounds were also being evaluated as anti viral agents, a biological activity that were reported in the U.S. Pat. No. 5,321,030. As will become clear in the data presented here the eye infection had no effect on the levels of glucose recorded. The schedule and dose selected in these experiments was based on prior experience working with this class of compounds as antiviral agents.
A total of 11 NZW rabbits weighing 1.75-2.0 Kg were used in the experiments. All animals were infused with various doses of cyclocreatine over a period of 1-7 days in a continuous infusion mode. Continuous infusions were achieved by surgical implantation of an indwelling catheter implant into the jugular vein by standard surgical procedures. The catheter was threaded through a steel sleeve and swivel apparatus attached to the back of the animal's neck which was anchored to a specially fitted vest. A Harvard Apparatus 2200 unifusion pump maintained drug delivery at a constant rate through out the experiment. This arrangement allowed the animal unimpaired movement within its cage. Animals received a bolus injection of antibiotics immediately after surgery and daily if needed. After animals recovered from the anesthesia, some animals were inoculated by intravitreal injection of AD169 HCMV (10^5 pfu). The remaining animals were left uninfected. Both infected and uninfected animals received a continuous infusion of cyclocreatine or saline for up to seven days. Concentrations of cyclocreatine were 5, 10, or 15 mg cyclocreatine/ml saline and infusion rates and volumes were adjusted to achieve the desired dose of 375-1125 mg/Kg/day. These concentrations were based on amounts required to achieve other biological activities such as antiviral or anticancer. […] The rest of the animals received a similar volume of sterile saline. […]

[3] = uninfected, 15 mg/ml (1125 mg/Kg/day), day five

NC1=NCCN1CC(=O)O [cyclocreatine]
Glucose Levels ([1]; Example 1): two drops in glucose levels at the time of drug administration
Glucose Levels ([1]; Example 2 (repeat)): induced a drop in the level of glucose after each administration
drop in glucose level ([1]; average of experiments one and two, day 15): ≤ 50%
Glucose Levels ([2]; 5 mg/ml, HCMV infected, animal 1, day 0): 177 mg/dL
Glucose Levels ([2]; 5 mg/ml, HCMV infected, animal 1, day 1): 104 mg/dL
Glucose Levels ([2]; 5 mg/ml, HCMV infected, animal 1, day 3): 70 mg/dL
Glucose Levels ([2]; 5 mg/ml, HCMV infected, animal 1, day 5): 29 mg/dL
Glucose Levels ([2]; 5 mg/ml, HCMV infected, animal 2, day 0): 177 mg/dL
Glucose Levels ([2]; 5 mg/ml, HCMV infected, animal 2, day 1): 94 mg/dL
Glucose Levels ([2]; 5 mg/ml, HCMV infected, animal 2, day 3): 49 mg/dL
Glucose Levels ([2]; 5 mg/ml, HCMV infected, animal 2, day 5): 41 mg/dL
Glucose Levels ([2]; 5 mg/ml, HCMV infected, animal 3, day 0): 177 mg/dL
Glucose Levels ([2]; 5 mg/ml, HCMV infected, animal 3, day 1): 93 mg/dL
Glucose Levels ([2]; 5 mg/ml, HCMV infected, animal 3, day 3): 47 mg/dL
Glucose Levels ([2]; 5 mg/ml, HCMV infected, animal 3, day 5): 33 mg/dL
Glucose Levels ([2]; 10 mg/ml, HCMV infected, animal 1, day 0): 169 mg/dL
Glucose Levels ([2]; 10 mg/ml, HCMV infected, animal 1, day 1): 118 mg/dL
Glucose Levels ([2]; 10 mg/ml, HCMV infected, animal 1, day 3): 103 mg/dL
Glucose Levels ([2]; 10 mg/ml, HCMV infected, animal 1, day 4): 59 mg/dL
Glucose Levels ([2]; 10 mg/ml, HCMV infected, animal 1, day 5): 45 mg/dL
Glucose Levels ([2]; 10 mg/ml, HCMV infected, animal 2, day 0): 194 mg/dL
Glucose Levels ([2]; 10 mg/ml, HCMV infected, animal 2, day 1): 89 mg/dL
Glucose Levels ([2]; 10 mg/ml, HCMV infected, animal 2, day 3): 98 mg/dL
Glucose Levels ([2]; 10 mg/ml, HCMV infected, animal 2, day 4): 69 mg/dL
Glucose Levels ([2]; 10 mg/ml, HCMV infected, animal 2, day 5): 62 mg/dL
Glucose Levels ([2]; 10 mg/ml, HCMV infected, animal 3, day 0): 201 mg/dL
Glucose Levels ([2]; 10 mg/ml, HCMV infected, animal 3, day 1): 76 mg/dL
Glucose Levels ([2]; 10 mg/ml, HCMV infected, animal 3, day 3): 74 mg/dL
Glucose Levels ([2]; 10 mg/ml, HCMV infected, animal 3, day 4): 87 mg/dL
Glucose Levels ([2]; 10 mg/ml, HCMV infected, animal 3, day 5): 55 mg/dL
Glucose Levels ([2]; 10 mg/ml, HCMV infected, animal 4, day 0): 184 mg/dL
Glucose Levels ([2]; 10 mg/ml, HCMV infected, animal 4, day 1): 81 mg/dL
Glucose Levels ([2]; 10 mg/ml, HCMV infected, animal 4, day 3): 85 mg/dL
Glucose Levels ([2]; 10 mg/ml, HCMV infected, animal 4, day 4): 65 mg/dL
Glucose Levels ([2]; 10 mg/ml, HCMV infected, animal 4, day 5): 53 mg/dL
Glucose Levels ([2]; 15 mg/ml, not infected, animal 1, day 0): 177 mg/dL
Glucose Levels ([2]; 15 mg/ml, not infected, animal 1, day 3): 48 mg/dL
Glucose Levels ([2]; 15 mg/ml, not infected, animal 2, day 0): 177 mg/dL
Glucose Levels ([2]; 15 mg/ml, not infected, animal 2, day 3): 59 mg/dL
Glucose Levels ([2]; 15 mg/ml, not infected, animal 2, day 5): 7 mg/dL
Glucose Levels ([2]; 15 mg/ml, not infected, animal 3, day 0): 177 mg/dL
Glucose Levels ([2]; 15 mg/ml, not infected, animal 3, day 5): 22 mg/dL
Glucose Levels ([2]; 15 mg/ml, not infected, animal 3, day 6): 22 mg/dL
Glucose Levels ([2]; 15 mg/ml, not infected, animal 3, day 7, (10 ml/rabbit 20% Dextrose)): 73 mg/dL
Glucose Levels ([2]; ave 5 mg/ml, HCMV infected, day 0): 177 mg/dL
Glucose Levels ([2]; ave 5 mg/ml, HCMV infected, day 1): 97 mg/dL
Glucose Levels ([2]; ave 5 mg/ml, HCMV infected, day 3): 55 mg/dL
Glucose Levels ([2]; ave 5 mg/ml, HCMV infected, day 5): 34 mg/dL
Glucose Levels ([2]; ave 10 mg/ml, HCMV infected, day 0): 187 mg/dL
Glucose Levels ([2]; ave 10 mg/ml, HCMV infected, day 1): 91 mg/dL
Glucose Levels ([2]; ave 10 mg/ml, HCMV infected, day 3): 90 mg/dL
Glucose Levels ([2]; ave 10 mg/ml, HCMV infected, day 4): 70 mg/dL
Glucose Levels ([2]; ave 10 mg/ml, HCMV infected, day 5): 54 mg/dL
Glucose Levels ([2]; ave 15 mg/ml, not infected, day 0): 177 mg/dL
Glucose Levels ([2]; ave 15 mg/ml, not infected, day 3): 54 mg/dL
Glucose Levels ([2]; ave 15 mg/ml, not infected, day 5): 15 mg/dL
Glucose Levels ([2]; ave 15 mg/ml, not infected, day 6): 22 mg/dL
Glucose Levels ([2]; ave 15 mg/ml, not infected, day 7, (10 ml/rabbit 20% Dextrose)): 73 mg/dL
blood glucose levels ([2]; infected, 10 mg/ml (750 mg/Kg/day) and 5 mg/ml (375 mg/Kg/day)): significant drop in blood glucose levels
average glucose levels ([2]; infected, day five): 30 to 50 mg/dL
average glucose levels ([2]; infected, day one): ~90 mg/dL
Glucose Levels ([2]; uninfected, 15 mg/ml (1125 mg/Kg/day)): significant drop in their glucose levels
Glucose Levels [2, 3]: 7 to 22 mg/dL
condition of the animals [2, 3]: very lethargic
Glucose Levels ([2]; uninfected, 15 mg/ml (1125 mg/Kg/day), day three): 48 to 59 mg/dL
level of glucose after 10 mls of a 20% solution of dextrose ([2]; uninfected, 15 mg/ml, day 7): 70 mg/dL

From patent publication US20050256134A1, “Use of creatine analogues and creatine kinase modulators for the prevention and treatment of glucose metabolic disorders” (AVICENA GROUP, INC., priority 1995, published 2005)
